Drawing on ChEMBL document CHEMBL3774318, “Synthesis and antiproliferative activity of goniobutenolides A and B, 5-halogenated crassalactone D derivatives and the corresponding 7-epimers” (Eur J Med Chem, 2016), this text covers IC50 for 1 molecule.

A short description of assay [1]: Cytotoxicity against human HL60 cells assessed as cell growth inhibition after 72 hrs by MTT assay. As to conditions: HL-60, 72 h. It counts as functional, cell-based.
The nature of assay [2]: Cytotoxicity against human Jurkat T cells assessed as cell growth inhibition after 72 hrs by MTT assay. The class given is functional, cell-based.

On to `COc1cccc2c1C(=O)c1c(O)c3c(c(O)c1C2=O)C[C@@](O)(C(=O)CO)C[C@@H]3O[C@H]1C[C@H](N)[C@H](O)[C@H](C)O1` [DOXORUBICIN], for which the 50% inhibitory concentration (IC50) is 920 nM in assay [1] and 30 nM in assay [2].
